Consider six compounds from patent publication US8993595B2, “Macrocyclic serine protease inhibitors” (priority 2009, dated 2015).

Series [1] deals with HCV Con1 subgenomic replicon in Huh-7 cells (GS4.1 cells). Nature of the series: HCV Replicon Assay (NS4A ELISA). The series is classed as cell-based. The settings on record: Hepatitis C virus, 72 hr. The protocol:
Huh-7 cells containing HCV Con1 subgenomic replicon (GS4.1 cells) were grown in Dulbecco's Modified Eagle Medium (DMEM) supplemented with 10% fetal bovine serum (FBS), 2 mM L-glutamine, 110 mg/L sodium pyruvate, 1× non-essential amino acids, 100 U/mL penicillin-streptomycin, and 0.5 mg/mL G418 (Invitrogen). For dose-response testing, the cells were seeded in 96-well plates at 7.5×10^3 cells/well in a volume of 50 μL, and incubated at 37° C./5% CO2. Three hours after plating, 50 μL of ten 2-fold serial dilutions of compounds (highest concentration, 75 μM) were added, and cell cultures were incubated at 37° C./5% CO2 in the presence of 0.5% DMSO. Alternatively, compounds were tested at a single concentration of 15 μM. In all cases, Huh-7 cells lacking the HCV replicon served as negative control. The cells were incubated in the presence of compounds for 72 hr after which they were monitored for expression of the NS4A protein by enzyme-linked immunosorbent assay (ELISA). For this, the plates were then fixed for 1 min with acetone/methanol (1:1, v/v), washed twice with phosphate-buffered saline (PBS), 0.1% Tween 20, blocked for 1 hr at room temperature with TNE buffer containing 10% FBS and then incubated for 2 hr at 37° C. with the anti-NS4A mouse monoclonal antibody A-236 (ViroGen) diluted in the same buffer. After washing three times with PBS, 0.1% Tween 20, the cells were incubated 1 hr at 37° C. with anti-mouse immunoglobulin G-peroxidase conjugate in TNE, 10% FBS. After washing as described above, the reaction was developed with O-phenylenediamine (Zymed). The reaction was stopped after 30 min with 2 N H2SO4, and absorbance was read at 492 nm using Sunrise Tecan spectrophotometer. EC50 values were determined from the % inhibition versus concentration data using a sigmoidal non-linear regression analysis based on four parameters with Tecan Magellan software.
(A replicon is a self-replicating genome or part of one, used to study replication in cells.)

Another series concerns the target T1, HCV NS3-NS4A protease (Hepatitis C virus genotype 1a, UniProt P27958).
T1 construct: HCV NS3-NS4A protease, which was obtained according to Taremi et al; made in house
Nature of the series: HCV Protease Assay (SensoLyte 620 HCV Protease Assay kit). The settings on record: 1.2 nM HCV NS3-NS4A protease, 60 min, room temperature. The series is classed as biochemical. The protocol: Measurement of the inhibitory effect of compounds on HCV protease activity was performed with the SensoLyte™ 620 HCV Protease Assay kit from AnaSpec, Inc. (San Jose, Calif.) under conditions described by the supplier using 1.2 nM HCV NS3-NS4A protease, which was obtained according to Taremi et al. (Protein Science, 1998, 7, 2143-2149). The compounds were tested at a variety of concentrations in assay buffer containing a final DMSO concentration of 5%. Reactions were allowed to proceed for 60 min at room temperature and fluorescence measurements were recorded with a Tecan Infinity Spectrofluorimeter. The IC50 values were determined from the percent inhibition versus concentration data using a sigmoidal non-linear regression analysis based on four parameters with Tecan Magellan software.

A short description of another series: in vitro. The conditions noted are these: human; GS4.1 cells, Cell Titer 96 AQueous One Solution. The series is classed as cell-based. The protocol:
For cytotoxicity evaluation, GS4.1 cells were treated with compounds as described above and cellular viability was monitored using the Cell Titer 96 AQueous One Solution Cell Proliferation Assay (Promega). CC50 values were determined from the % cytotoxicity versus concentration data with Tecan Magellan software as described above.

T1 sequence (P27958 1027-1208): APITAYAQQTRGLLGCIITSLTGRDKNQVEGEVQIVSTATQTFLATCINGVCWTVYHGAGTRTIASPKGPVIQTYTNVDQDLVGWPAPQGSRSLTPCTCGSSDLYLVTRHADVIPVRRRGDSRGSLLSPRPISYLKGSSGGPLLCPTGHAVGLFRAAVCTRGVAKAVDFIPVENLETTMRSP

`C#Cc1csc(-c2cc(O[C@H]3CCN4C(=O)N(C)CCCC/C=C\[C@@H]5C[C@@]5(C(=O)NS(=O)(=O)C5(C)CC5)NC(=O)[C@@H]4C3)c3ccc(OC)c(C)c3n2)n1` [Compound 55, 1-methyl-cycloprpoanesulfonic acid{(Z)-(1S,4R,6S,18S)-18-[2-(4-ethynyl-thiazol-2-yl)-7-methoxy-8-methyl-quinolin-4-yl-oxy]-13-methyl-2,14-dioxo-3,13,15-triaza-tricyclo[13.4.0.0*4,6*]nonadec-7-ene-4-carbonyl}-amide]: the EC50 (commonly the concentration giving half of the maximal effect) in series [1] was below 1000 nM. The IC50 (in general, the midpoint of a concentration-inhibition curve) on HCV NS3-NS4A protease was below 1000 nM. The CC50 (commonly the concentration that lowers cell viability or growth by half) in the series “in vitro” lay within 10000 to 75000 nM.
Compound `COc1ccc2c(O[C@H]3CCN4C(=O)CCCCC/C=C\[C@@H]5C[C@@]5(C(=O)NS(=O)(=O)C5CC5)NC(=O)[C@@H]4C3)cc(-c3nc(C(F)(F)F)cs3)nc2c1C` [Compound 58] displayed a concentration giving a half-maximal response (EC50) in series [1] below 1000 nM. Also, the IC50 at HCV NS3-NS4A protease is below 1000 nM. The compound further had a CC50 in “in vitro” of 10000 to 75000 nM.
As to `COc1ccc2c(O[C@H]3CCN4C(=O)N(C)CCCC/C=C\[C@@H]5C[C@@]5(C(=O)NS(=O)(=O)C5(C)CC5)NC(=O)[C@@H]4C3)nc(-c3nc(C(F)(F)F)cs3)nc2c1C` [Compound 57, 1-methyl-cyclopropanesulfonic acid {(Z)-(1S,4R,6S,18S)-18-[7-methoxy-8-methyl-2-(4-trifluoromethyl-thiazol-2-yl)quinazolin-4-yloxy]-13-methyl-2,14-dioxo-3,13,15-triaza-tricyclo[13.4.0.0*4,6*]nonadec-7-ene-4-carbonyl}-amide], the EC50 in series [1] was below 1000 nM. The compound also displayed an IC50 on HCV NS3-NS4A protease below 1000 nM. For the same compound, the CC50 in the series “in vitro” lay within 10000 to 75000 nM.
In series [1], `COc1ccc2c(O[C@H]3CCN4C(=O)N(C)CCCC/C=C\[C@@H]5C[C@@]5(C(=O)NS(=O)(=O)C5(C)CC5)NC(=O)[C@@H]4C3)nc(-c3ccc(F)cc3)nc2c1C` [Compound 56] returned an EC50 below 1000 nM. In addition, on HCV NS3-NS4A protease, the IC50 is below 1000 nM. Besides, the CC50 in “in vitro” is above 75000 nM.
`COc1ccc2c(O[C@H]3CCN4C(=O)N(C)CCOC/C=C\[C@@H]5C[C@@]5(C(=O)NS(=O)(=O)C5(C)CC5)NC(=O)[C@@H]4C3)cc(-c3nc(C(F)(F)F)cs3)nc2c1C` [Compound 54] registered an EC50 in series [1] of 1000 to 10000 nM. The compound also gave a 50% inhibitory concentration (IC50) against HCV NS3-NS4A protease below 1000 nM. In “in vitro”, this compound yielded a CC50 above 75000 nM.
For `COc1ccc2c(O[C@H]3CCN4C(=O)N(C)CCCC/C=C\[C@@H]5C[C@@]5(C(=O)NS(=O)(=O)C5CC5)NC(=O)[C@@H]4C3)cc(-c3nc(C(F)(F)F)cs3)nc2c1C` [Compound 51, 1-cyclopropanesulfonic acid{(Z)-(1S,4R,6S,18S)-18-[7-methoxy-8-methyl-2-(4-trifluoromethyl-thiazol-2-yl)-quinolin-4-yloxy]-13-methyl-2,14-dioxo-3,13,15-triaza-tricyclo[13.4.0.0*4,6*]nonadec-7-ene-4-carbonyl}amide], in that order: below 1000 nM, below 1000 nM and 10000 to 75000 nM.
